{"source": "patent US20070254905A1", "about": "“Pharmaceutical Formulation for Increasing Solubility of 10-Hydroxycamptothecin Compounds in Non-Aqueous Polar Solvents” (priority 2004, published 2007)", "key": {"[1]": {"type": "physicochemical"}, "[2]": {"assay": "Lyophilized SN-38 formulation reconstituted with water for injection, HPLC and pH", "type": "physicochemical", "procedure": "Alternatively, a 10-hydroxycamptothecin compound and an amine compound are solubilized in non-aqueous polar solvent, and polymer surfactant is added thereto to prepare a solution. Next, a caking agent for lyophilization is added thereto to prepare a lyophilized formulation. As a specific example, 250 mg of copolymer (mPEG-PLA) of polyethyleneglycol (molecular weight: 2,000 daltons) and polylactic acid (molecular weight: 1,800 daltons) maybe added to a solution in which SN-38 and tromethamine are solubilized in anhydrous ethanol as above, to prepare a pure solution, and then 4 Ml of aqueous mannitol solution (100 mg/Ml) as a caking agent for lyophilization is added thereto, which is filtered with a filter having a pore size of 200 nm, and lyophilized. This lyophilized formulation is reconstituted with 4 Ml of water for injection, and then analyzed by HPLC to confirm that the concentration of SN-38 was 205 μg/Ml, 92% or more of SN-38 existed in the form of a lactone, and the pH of the aqueous solution was 8.4.\n12 mg of tromethamine was dissolved in 1 ml of anhydrous ethanol, and 1 mg of SN-38 was added thereto and heated to 60[…] to prepare a pure solution of orange color. Subsequently, the block copolymer of methoxypolyethyleneglycol and polylactic acid, and 200 mg of mPEG-PLA (mPEG molecular weight: 2,000 daltons, PLA molecular weight: 1,800 daltons) were added thereto to prepare a pure solution. Then, 5 ml of aqueous mannitol solution (50 mg/ml) was added thereto, mixed, filtered with a filter having a pore size of 200 nm, and lyophilized to prepare a lyophilized formulation.\nInjectable water of 4 Ml was added to the lyophilized vial to reconstitute the lyophilized formulation."}, "[3]": {"assay": "SN-38 content, lactone/carboxy anion ratio and pH after dilution of surfactant composition with aqueous solution", "type": "physicochemical", "conditions": "tromethamine/ethanol/cremophore EL solution, refrigerator 1 week, diluted with 0.9% saline to 5 Ml"}, "[4]": {"assay": "physchem", "conditions": "organic solvent or mixture, thermodynamic from solid"}, "[5]": {"target": "T1, topoisomerase □ (Homo sapiens, UniProt P11387)", "T1 sequence (P11387 1-765)": "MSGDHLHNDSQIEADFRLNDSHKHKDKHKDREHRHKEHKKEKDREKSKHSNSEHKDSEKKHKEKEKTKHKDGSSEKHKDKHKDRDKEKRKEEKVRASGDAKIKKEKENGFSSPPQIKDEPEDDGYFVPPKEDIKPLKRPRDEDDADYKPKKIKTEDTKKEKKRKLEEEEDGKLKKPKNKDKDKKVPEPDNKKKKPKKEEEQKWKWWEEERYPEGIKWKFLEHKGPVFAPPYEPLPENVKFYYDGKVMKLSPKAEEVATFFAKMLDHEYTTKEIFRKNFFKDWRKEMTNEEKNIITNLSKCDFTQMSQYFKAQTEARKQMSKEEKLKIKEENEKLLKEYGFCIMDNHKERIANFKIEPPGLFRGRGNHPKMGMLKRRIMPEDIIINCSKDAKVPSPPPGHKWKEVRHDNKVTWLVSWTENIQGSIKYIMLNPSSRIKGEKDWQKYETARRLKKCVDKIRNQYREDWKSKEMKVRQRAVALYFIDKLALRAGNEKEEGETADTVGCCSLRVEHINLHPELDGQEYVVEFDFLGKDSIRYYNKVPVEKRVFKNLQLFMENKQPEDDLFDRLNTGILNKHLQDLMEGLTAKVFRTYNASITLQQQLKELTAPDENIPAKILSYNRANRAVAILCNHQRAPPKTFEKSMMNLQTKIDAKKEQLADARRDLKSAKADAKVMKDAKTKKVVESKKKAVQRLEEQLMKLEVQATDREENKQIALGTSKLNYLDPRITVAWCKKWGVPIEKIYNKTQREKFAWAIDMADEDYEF", "conditions": "relative to CPT-11; cited from earlier work"}, "[6]": {"test_system": "acetylcholine", "conditions": "compared with CPT-11; cited from earlier work"}, "[7]": {"conditions": "cited from earlier work"}, "[8]": {"conditions": "anhydrous ethanol, 10 equivalents of triethanolamine"}, "[9]": {"conditions": "lyophilized with 250 mg mPEG-PLA, tromethamine, mannitol, reconstituted with 4 Ml water for injection"}}, "note": "Read-outs that look alike come from different tables or passages of the source."}
{"compound": "CCc1c2c(nc3ccc(O)cc13)-c1cc3c(c(=O)n1C2)COC(=O)C3(O)CC", "note": "(stereo not drawn) [SN-38, 7-ethyl-10-hydroxycamptothecin]", "values": [{"measurement": "SN-38 in the form of a lactone", "setting": "[1]; 1 mg SN-38, 10 mg tromethamine, 1 Ml anhydrous ethanol, 500 mg cremophore EL, diluted with acetonitrile", "result": 100, "unit": "%"}, {"measurement": "Lacton content", "setting": "[1]; SN-38 1 mg in 1 ml anhydrous ethanol, amine compound 10 equivalents", "result": 100, "unit": "%"}, {"measurement": "Lacton content", "setting": "[1]; SN-38 1 mg in 1 ml organic solvent, tromethamine 10 equivalents", "result": 100, "unit": "%"}, {"measurement": "Form of SN-38 by HPLC analysis", "setting": "[1]; [8]", "result": "no carboxy anion form was observed"}, {"measurement": "pH of the aqueous solution", "setting": "[2]; Example 8: 12 mg tromethamine, 200 mg mPEG-PLA, mannitol, lyophilized, reconstituted with 4 Ml injectable water", "result": 8.4}, {"measurement": "Lactone form of SN-38", "setting": "[2]; Example 8 lyophilized formulation reconstituted with 4 Ml injectable water", "result": 97, "unit": "%"}, {"measurement": "Drug content", "setting": "[2]; Example 8 lyophilized formulation reconstituted with 4 Ml injectable water, HPLC", "result": 242, "unit": "µg/mL"}, {"measurement": "Concentration of SN-38", "setting": "[2]; [9]", "result": 205, "unit": "µg/mL"}, {"measurement": "SN-38 in the form of a lactone", "setting": "[2]; [9]", "result": "≥ 92", "unit": "%"}, {"measurement": "pH of the aqueous solution", "setting": "[2]; [9]", "result": 8.4}, {"measurement": "Concentration of SN-38", "setting": "[3]", "result": 220, "unit": "µg/mL"}, {"measurement": "SN-38 in the form of the lactone", "setting": "[3]", "result": "≥ 95", "unit": "%"}, {"measurement": "pH of the solution diluted with saline", "setting": "[3]", "result": 8.7}, {"measurement": "solubility at 12 h", "setting": "[4]; Solubility of SN-38 in ethanol, ethanol, no amine", "result": 8, "unit": "µg/mL"}, {"measurement": "solubility at 12 h", "setting": "[4]; Solubility of SN-38 in ethanol, in the presence of 5 or more equivalents of diethanolamine", "result": "≥ 1000", "unit": "µg/mL"}, {"measurement": "solubility at 12 h", "setting": "[4]; Solubility, SN-38 1 mg in 1 ml anhydrous ethanol, amine compound 10 equivalents, room temperature 12 hours", "result": "≥ 1000", "unit": "µg/mL"}, {"measurement": "solubility at 12 h", "setting": "[4]; Solubility, SN-38 1 mg in 1 ml organic solvent, tromethamine 10 equivalents, room temperature 12 hours", "result": "≥ 1000", "unit": "µg/mL"}, {"measurement": "Activity for inhibiting topoisomerase □, higher than that of CPT-11", "setting": "[5]", "result": "about 1,000 times"}, {"measurement": "Solubility of SN-38", "setting": "anhydrous ethanol without adding an amine compound", "result": "a few"}, {"measurement": "Solubility of SN-38", "setting": "[8]", "result": "about 1 mg/Ml"}, {"measurement": "Effect for inhibiting acetylcholine which causes diarrhea", "setting": "[6]", "result": "much lower than that of CPT-11"}, {"measurement": "Solubility in water of the active lactone form", "setting": "[7]; active lactone form", "result": "not more than 10 μg/ml"}, {"measurement": "Solubility of SN-38 in water", "setting": "[7]", "result": "not more than 10 μg/ml"}, {"measurement": "Solubility in water of the carboxy anion form", "setting": "[7]; inactive carboxy anion form", "result": "≥ 4000", "unit": "µg/mL"}]}
